Patent US8604217B2, “Compound, a process for its preparation, a pharmaceutical composition, use of a compound, a method for modulating or regulating serine/threonine kinases and a serine/threonine kinases modulating agent” (Selvita S.A., priority 2009, dated 2013)
Each block holds one compound with its values, some of them ahead of it.

Legend:
EphB1(h) = EphB1(h) (Homo sapiens (Human), UniProt P54762); experiment: KinaseProfiler kinase panel; format: biochemical
PAK4(h) = PAK4(h) (Homo sapiens (Human), UniProt O96013); experiment: KinaseProfiler kinase panel; format: biochemical
Sequence of PAK4(h) (O96013 whole entry): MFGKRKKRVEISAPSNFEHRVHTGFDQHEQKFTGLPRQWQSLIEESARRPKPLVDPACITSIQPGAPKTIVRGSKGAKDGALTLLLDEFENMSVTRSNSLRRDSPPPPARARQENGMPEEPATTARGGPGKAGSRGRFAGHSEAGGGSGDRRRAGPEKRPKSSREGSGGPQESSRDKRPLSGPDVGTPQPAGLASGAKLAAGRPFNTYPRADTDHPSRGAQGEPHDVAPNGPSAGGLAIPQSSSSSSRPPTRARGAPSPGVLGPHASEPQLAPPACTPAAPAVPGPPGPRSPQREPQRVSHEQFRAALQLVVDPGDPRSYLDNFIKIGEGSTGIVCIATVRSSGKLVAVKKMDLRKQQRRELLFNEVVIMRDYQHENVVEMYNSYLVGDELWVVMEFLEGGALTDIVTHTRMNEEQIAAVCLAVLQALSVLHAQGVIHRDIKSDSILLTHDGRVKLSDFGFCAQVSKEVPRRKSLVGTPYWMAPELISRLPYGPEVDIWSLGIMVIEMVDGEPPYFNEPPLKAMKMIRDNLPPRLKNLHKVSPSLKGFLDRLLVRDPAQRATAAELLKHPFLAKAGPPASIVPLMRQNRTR

PIM-2(h) = PIM-2(h) (Homo sapiens (Human), UniProt Q9P1W9); experiment: KinaseProfiler kinase panel; format: biochemical
MARK1(h) = MARK1(h) (Homo sapiens (Human), UniProt Q9P0L2); experiment: KinaseProfiler kinase panel; format: biochemical
Flt3(D835Y)(h) = Flt3(D835Y)(h) (Homo sapiens (Human), UniProt P36888, D835Y); experiment: KinaseProfiler kinase panel; format: biochemical
DRAK1(h) = DRAK1(h) (Homo sapiens (Human), UniProt Q9UEE5); experiment: KinaseProfiler kinase panel; format: biochemical
Sequence of DRAK1(h) (Q9UEE5 whole entry): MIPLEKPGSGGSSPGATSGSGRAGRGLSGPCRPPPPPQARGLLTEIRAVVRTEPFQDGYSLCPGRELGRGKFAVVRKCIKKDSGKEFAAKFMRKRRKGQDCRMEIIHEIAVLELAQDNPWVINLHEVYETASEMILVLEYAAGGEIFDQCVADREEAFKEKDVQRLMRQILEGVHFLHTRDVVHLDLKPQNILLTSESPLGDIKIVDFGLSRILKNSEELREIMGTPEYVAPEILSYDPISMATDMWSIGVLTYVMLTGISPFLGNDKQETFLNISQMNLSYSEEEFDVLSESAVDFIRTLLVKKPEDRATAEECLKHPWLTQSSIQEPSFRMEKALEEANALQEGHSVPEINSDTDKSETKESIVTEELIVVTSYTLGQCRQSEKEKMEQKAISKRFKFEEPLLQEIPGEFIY

GRK5(h) = GRK5(h) (Homo sapiens (Human), UniProt P34947); experiment: KinaseProfiler kinase panel; format: biochemical
CDK2/cyclinE(h) = CDK2/cyclinE(h) (Homo sapiens (Human), UniProt P24941); experiment: KinaseProfiler kinase panel; format: biochemical
EphB3(h) = EphB3(h) (Homo sapiens (Human), UniProt P54753); experiment: KinaseProfiler kinase panel; format: biochemical
Arg(h) = Arg(h) (Homo sapiens (Human), UniProt P42684); experiment: KinaseProfiler kinase panel; format: biochemical
Met(D1246N)(h) = Met(D1246N)(h) (Homo sapiens (Human), UniProt P08581, D1246N); experiment: KinaseProfiler kinase panel; format: biochemical
ALK4(h) = ALK4(h) (Homo sapiens (Human), UniProt P36896); experiment: KinaseProfiler kinase panel; format: biochemical
Met(Y1248C)(h) = Met(Y1248C)(h) (Homo sapiens (Human), UniProt P08581, Y1248C); experiment: KinaseProfiler kinase panel; format: biochemical
EGFR(L861Q)(h) = EGFR(L861Q)(h) (Homo sapiens (Human), UniProt P00533, L861Q); experiment: KinaseProfiler kinase panel; format: biochemical
Sequence of EGFR(L861Q)(h) (P00533 25-1210 L861Q): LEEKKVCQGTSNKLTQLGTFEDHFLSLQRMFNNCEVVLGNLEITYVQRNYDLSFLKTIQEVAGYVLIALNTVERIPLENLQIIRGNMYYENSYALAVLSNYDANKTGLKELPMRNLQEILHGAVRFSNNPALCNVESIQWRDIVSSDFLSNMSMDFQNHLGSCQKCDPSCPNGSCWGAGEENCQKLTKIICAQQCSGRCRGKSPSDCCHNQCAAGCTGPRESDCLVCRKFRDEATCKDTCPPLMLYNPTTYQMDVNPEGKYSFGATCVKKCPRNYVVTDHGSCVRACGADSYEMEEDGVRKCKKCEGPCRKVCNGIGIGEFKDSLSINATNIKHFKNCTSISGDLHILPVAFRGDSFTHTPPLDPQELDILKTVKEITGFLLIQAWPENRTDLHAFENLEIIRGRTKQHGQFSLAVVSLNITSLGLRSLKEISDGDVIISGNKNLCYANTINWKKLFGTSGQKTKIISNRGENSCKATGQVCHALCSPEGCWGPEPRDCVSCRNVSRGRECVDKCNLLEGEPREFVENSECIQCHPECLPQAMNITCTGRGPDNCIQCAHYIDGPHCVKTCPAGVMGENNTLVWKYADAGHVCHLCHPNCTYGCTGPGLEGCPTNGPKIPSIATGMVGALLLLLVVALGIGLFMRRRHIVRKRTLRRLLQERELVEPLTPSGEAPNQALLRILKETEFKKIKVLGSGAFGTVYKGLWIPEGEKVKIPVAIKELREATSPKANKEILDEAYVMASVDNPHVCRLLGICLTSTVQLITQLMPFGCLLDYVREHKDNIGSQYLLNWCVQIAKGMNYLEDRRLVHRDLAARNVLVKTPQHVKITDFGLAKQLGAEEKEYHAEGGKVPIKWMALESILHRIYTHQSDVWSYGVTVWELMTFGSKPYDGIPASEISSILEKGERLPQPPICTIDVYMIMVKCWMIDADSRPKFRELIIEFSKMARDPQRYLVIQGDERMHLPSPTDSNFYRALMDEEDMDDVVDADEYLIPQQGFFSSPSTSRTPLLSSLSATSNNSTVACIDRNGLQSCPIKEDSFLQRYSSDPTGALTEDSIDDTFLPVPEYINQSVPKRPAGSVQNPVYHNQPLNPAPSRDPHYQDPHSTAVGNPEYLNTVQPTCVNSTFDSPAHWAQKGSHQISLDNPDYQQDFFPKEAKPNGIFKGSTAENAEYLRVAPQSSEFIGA

cKit(V560G)(h) = cKit(V560G)(h) (Homo sapiens (Human), UniProt P10721, V560G); experiment: KinaseProfiler kinase panel; format: biochemical
SAPK4(h) = SAPK4(h) (Homo sapiens (Human), UniProt O15264); experiment: KinaseProfiler kinase panel; format: biochemical
Sequence of SAPK4(h) (O15264 whole entry): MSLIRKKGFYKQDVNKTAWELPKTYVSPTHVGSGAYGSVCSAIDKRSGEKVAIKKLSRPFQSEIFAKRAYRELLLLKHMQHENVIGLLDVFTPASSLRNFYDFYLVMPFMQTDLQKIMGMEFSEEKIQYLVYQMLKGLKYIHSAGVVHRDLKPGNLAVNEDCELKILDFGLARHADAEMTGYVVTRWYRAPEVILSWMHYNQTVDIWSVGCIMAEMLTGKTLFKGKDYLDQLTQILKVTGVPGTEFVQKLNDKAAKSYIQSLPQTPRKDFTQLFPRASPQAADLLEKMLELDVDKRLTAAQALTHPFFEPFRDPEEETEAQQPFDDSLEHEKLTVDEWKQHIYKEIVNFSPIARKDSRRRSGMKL

CDK3/cyclinE(h) = CDK3/cyclinE(h) (Homo sapiens (Human), UniProt Q00526); experiment: KinaseProfiler kinase panel; format: biochemical
MST1(h) = MST1(h) (Homo sapiens (Human), UniProt Q13043); experiment: KinaseProfiler kinase panel; format: biochemical
PKG1α(h) = PKG1α(h) (Homo sapiens (Human), UniProt Q13976); experiment: KinaseProfiler kinase panel; format: biochemical
LIMK1(h) = LIMK1(h) (Homo sapiens (Human), UniProt P53667); experiment: KinaseProfiler kinase panel; format: biochemical
Sequence of LIMK1(h) (P53667 whole entry): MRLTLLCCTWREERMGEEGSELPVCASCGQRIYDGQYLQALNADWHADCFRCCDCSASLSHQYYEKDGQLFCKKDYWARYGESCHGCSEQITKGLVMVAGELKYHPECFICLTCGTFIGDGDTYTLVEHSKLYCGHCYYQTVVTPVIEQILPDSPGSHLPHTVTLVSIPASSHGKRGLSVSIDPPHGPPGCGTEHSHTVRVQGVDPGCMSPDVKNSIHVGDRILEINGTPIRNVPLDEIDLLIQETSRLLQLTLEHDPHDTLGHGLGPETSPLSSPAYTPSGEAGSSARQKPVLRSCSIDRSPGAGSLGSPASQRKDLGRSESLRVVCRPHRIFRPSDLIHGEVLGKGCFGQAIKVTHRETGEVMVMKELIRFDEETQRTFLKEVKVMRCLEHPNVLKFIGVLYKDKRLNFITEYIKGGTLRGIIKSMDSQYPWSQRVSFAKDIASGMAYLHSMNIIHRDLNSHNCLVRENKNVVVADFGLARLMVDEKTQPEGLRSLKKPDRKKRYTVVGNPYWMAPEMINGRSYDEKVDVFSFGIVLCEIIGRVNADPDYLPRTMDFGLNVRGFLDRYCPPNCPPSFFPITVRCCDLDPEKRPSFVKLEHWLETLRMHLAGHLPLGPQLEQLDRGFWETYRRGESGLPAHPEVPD

EGFR(L858R)(h) = EGFR(L858R)(h) (Homo sapiens (Human), UniProt P00533, L858R); experiment: KinaseProfiler kinase panel; format: biochemical
EGFR(T790M)(h) = EGFR(T790M)(h) (Homo sapiens (Human), UniProt P00533, T790M); experiment: KinaseProfiler kinase panel; format: biochemical
IGF-1R(h), activated = IGF-1R(h), activated (Homo sapiens (Human), UniProt P08069); experiment: KinaseProfiler kinase panel; format: biochemical
FGFR4(h) = FGFR4(h) (Homo sapiens (Human), UniProt P22455); experiment: KinaseProfiler kinase panel; format: biochemical
Sequence of FGFR4(h) (P22455 22-802): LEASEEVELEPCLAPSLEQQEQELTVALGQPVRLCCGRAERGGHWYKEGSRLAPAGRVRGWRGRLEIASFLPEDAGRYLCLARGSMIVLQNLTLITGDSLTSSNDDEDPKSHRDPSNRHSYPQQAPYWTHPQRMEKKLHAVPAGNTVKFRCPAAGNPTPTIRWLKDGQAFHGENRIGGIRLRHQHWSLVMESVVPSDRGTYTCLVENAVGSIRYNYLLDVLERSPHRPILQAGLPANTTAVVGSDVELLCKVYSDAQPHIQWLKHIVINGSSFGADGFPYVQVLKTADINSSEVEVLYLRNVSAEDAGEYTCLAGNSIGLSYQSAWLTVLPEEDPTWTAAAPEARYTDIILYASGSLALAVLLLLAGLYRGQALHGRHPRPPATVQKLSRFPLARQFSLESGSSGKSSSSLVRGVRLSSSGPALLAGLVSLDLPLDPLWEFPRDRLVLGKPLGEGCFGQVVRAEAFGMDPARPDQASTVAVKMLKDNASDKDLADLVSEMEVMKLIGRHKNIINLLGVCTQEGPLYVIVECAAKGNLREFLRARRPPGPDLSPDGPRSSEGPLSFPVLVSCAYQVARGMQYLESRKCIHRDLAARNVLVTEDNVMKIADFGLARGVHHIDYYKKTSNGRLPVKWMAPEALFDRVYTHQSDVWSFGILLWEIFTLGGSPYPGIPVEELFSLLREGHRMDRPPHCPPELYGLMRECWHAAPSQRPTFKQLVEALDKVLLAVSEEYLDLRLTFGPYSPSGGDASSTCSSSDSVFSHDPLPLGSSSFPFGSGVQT

Plk3(h) = Plk3(h) (Homo sapiens (Human), UniProt Q9H4B4); experiment: KinaseProfiler kinase panel; format: biochemical
Abl (M351T)(h) = Abl (M351T)(h) (Homo sapiens (Human), UniProt P00519, M351T); experiment: KinaseProfiler kinase panel; format: biochemical
MST3(h) = MST3(h) (Homo sapiens (Human), UniProt Q9Y6E0); experiment: KinaseProfiler kinase panel; format: biochemical
CaMKIIβ(h) = CaMKIIβ(h) (Homo sapiens (Human), UniProt Q13554); experiment: KinaseProfiler kinase panel; format: biochemical
MAPKAP-K3(h) = MAPKAP-K3(h) (Homo sapiens (Human), UniProt Q16644); experiment: KinaseProfiler kinase panel; format: biochemical
Sequence of MAPKAP-K3(h) (Q16644 whole entry): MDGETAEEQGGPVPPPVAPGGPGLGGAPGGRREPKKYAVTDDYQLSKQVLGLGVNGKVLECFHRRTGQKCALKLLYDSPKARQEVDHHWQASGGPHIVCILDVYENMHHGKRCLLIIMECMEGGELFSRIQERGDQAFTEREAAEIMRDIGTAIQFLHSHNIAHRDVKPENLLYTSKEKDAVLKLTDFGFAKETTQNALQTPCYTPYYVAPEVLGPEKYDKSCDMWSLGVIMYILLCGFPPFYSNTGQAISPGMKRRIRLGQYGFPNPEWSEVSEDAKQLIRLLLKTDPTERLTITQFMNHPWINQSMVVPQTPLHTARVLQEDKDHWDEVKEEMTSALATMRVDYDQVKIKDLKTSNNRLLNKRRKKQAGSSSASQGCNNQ

FGFR3(h) = FGFR3(h) (Homo sapiens (Human), UniProt P22607); experiment: KinaseProfiler kinase panel; format: biochemical
ZAP-70(h) = ZAP-70(h) (Homo sapiens (Human), UniProt P43403); experiment: KinaseProfiler kinase panel; format: biochemical
Flt3(h) = Flt3(h) (Homo sapiens (Human), UniProt P36888); experiment: KinaseProfiler kinase panel; format: biochemical
EphA7(h) = EphA7(h) (Homo sapiens (Human), UniProt Q15375); experiment: KinaseProfiler kinase panel; format: biochemical
IR(h), activated = IR(h), activated (Homo sapiens (Human), UniProt P06213); experiment: KinaseProfiler kinase panel; format: biochemical
GRK6(h) = GRK6(h) (Homo sapiens (Human), UniProt P43250); experiment: KinaseProfiler kinase panel; format: biochemical
Sequence of GRK6(h) (P43250 whole entry): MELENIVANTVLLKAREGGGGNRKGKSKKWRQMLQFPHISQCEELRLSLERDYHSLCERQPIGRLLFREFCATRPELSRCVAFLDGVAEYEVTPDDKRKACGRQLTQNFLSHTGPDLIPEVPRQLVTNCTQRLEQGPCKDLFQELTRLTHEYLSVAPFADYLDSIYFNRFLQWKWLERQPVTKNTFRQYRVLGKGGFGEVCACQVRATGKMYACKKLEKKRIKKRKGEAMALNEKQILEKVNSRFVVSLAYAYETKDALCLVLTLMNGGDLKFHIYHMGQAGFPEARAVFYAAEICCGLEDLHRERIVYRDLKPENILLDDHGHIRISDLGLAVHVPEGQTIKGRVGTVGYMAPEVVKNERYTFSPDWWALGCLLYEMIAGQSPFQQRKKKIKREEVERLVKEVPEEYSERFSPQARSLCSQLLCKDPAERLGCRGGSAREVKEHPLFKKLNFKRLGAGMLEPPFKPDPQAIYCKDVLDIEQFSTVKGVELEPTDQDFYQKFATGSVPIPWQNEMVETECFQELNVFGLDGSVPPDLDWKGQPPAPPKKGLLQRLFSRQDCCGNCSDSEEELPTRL

PKCα(h) = PKCα(h) (Homo sapiens (Human), UniProt P17252); experiment: KinaseProfiler kinase panel; format: biochemical
Met(Y1248D)(h) = Met(Y1248D)(h) (Homo sapiens (Human), UniProt P08581, Y1248D); experiment: KinaseProfiler kinase panel; format: biochemical
ROCK-II(h) = ROCK-II(h) (Homo sapiens (Human), UniProt O75116); experiment: KinaseProfiler kinase panel; format: biochemical
CDK2/cyclin A = CDK2/cyclin A (Homo sapiens (Human), UniProt P24941); conditions: tested at 1 μM; cited from earlier work

remaining activity at 1 µM (EphB1(h)): 87%
remaining activity at 1 µM (PAK4(h)): 79%
remaining activity at 1 µM (PIM-2(h)): 10%
remaining activity at 1 µM (MARK1(h)): 91%
remaining activity at 1 µM (Flt3(D835Y)(h)): 1%
remaining activity at 1 µM (DRAK1(h)): 82%
remaining activity at 1 µM (GRK5(h)): 96%
remaining activity at 1 µM (CDK2/cyclinE(h)): 6%
remaining activity at 1 µM (EphB3(h)): 121%
remaining activity at 1 µM (Arg(h)): 119%
remaining activity at 1 µM (Met(D1246N)(h)): 74%
remaining activity at 1 µM (ALK4(h)): 112%
remaining activity at 1 µM (Met(Y1248C)(h)): 73%
remaining activity at 1 µM (EGFR(L861Q)(h)): 27%
remaining activity at 1 µM (cKit(V560G)(h)): 35%
remaining activity at 1 µM (SAPK4(h)): 51%
remaining activity at 1 µM (CDK3/cyclinE(h)): 16%
remaining activity at 1 µM (MST1(h)): 71%
remaining activity at 1 µM (PKG1α(h)): 7%
remaining activity at 1 µM (LIMK1(h)): 98%
remaining activity at 1 µM (EGFR(L858R)(h)): 22%
remaining activity at 1 µM (EGFR(T790M)(h)): 28%
remaining activity at 1 µM (IGF-1R(h), activated): 87%
remaining activity at 1 µM (FGFR4(h)): 94%
remaining activity at 1 µM (Plk3(h)): 101%
remaining activity at 1 µM (Abl (M351T)(h)): 95%
remaining activity at 1 µM (MST3(h)): 93%
remaining activity at 1 µM (CaMKIIβ(h)): 67%
remaining activity at 1 µM (MAPKAP-K3(h)): 106%
remaining activity at 1 µM (FGFR3(h)): 105%
remaining activity at 1 µM (ZAP-70(h)): 108%
remaining activity at 1 µM (Flt3(h)): 0%
remaining activity at 1 µM (EphA7(h)): 91%
remaining activity at 1 µM (IR(h), activated): 93%
remaining activity at 1 µM (GRK6(h)): 91%
remaining activity at 1 µM (PKCα(h)): 95%
remaining activity at 1 µM (Met(Y1248D)(h)): 81%
remaining activity at 1 µM (ROCK-II(h)): 81%
Structure (SMILES): CCn1c(N2CCNCC2)nc2c(Br)c(Br)c(Br)c(Br)c21 [Compound 416, 4,5,6,7-tetrabromo-1-ethyl-2-(piperazin-1-yl)-1H-benzo[d]imidazole]

Structure (SMILES): CN(C)c1nc2c(Br)c(Br)c(Br)c(Br)c2[nH]1 [DMAT, 2-dimethylamino-4,5,6,7-tetrabromo-1H-benzimidazole, reference compound]
inhibition of CDK2/cyclin A activity (CDK2/cyclin A): do not inhibit
